Assay: xn = mol fraction of the nth substance listed, in the solute-free solvent

C#CC1(O)C=CC2C3CCC4=CC(=O)CCC4C3CCC21CC (configuration not stated) + CO + O
solubility (g/100 g solution)
Conditions | x2 = 0.05881 | x2 = 0.1233 | x2 = 0.1942 | x2 = 0.2727 | x2 = 0.3599 | x2 = 0.4576 | x2 = 0.5675 | x2 = 0.6923 | x2 = 0.835
283.15 K | 0.314 | 0.312 | 0.374 | 0.434 | 0.812 | 1.22 | 1.5 | 3.21 | 3.44
293.15 K | 0.435 | 0.437 | 0.512 | 0.594 | 1.2 | 1.81 | 2.45 | 4.24 | 5.12
298.15 K | 0.503 | 0.51 | 0.598 | 0.692 | 1.49 | 2.18 | 3.09 | 4.83 | 6.09
303.15 K | 0.578 | 0.592 | 0.696 | 0.804 | 1.8 | 2.59 | 3.85 | 5.45 | 7.24
308.15 K | 0.66 | 0.687 | 0.811 | 0.932 | 2.16 | 3.06 | 4.78 | 6.1 | 8.54
313.15 K | 0.746 | 0.791 | 0.943 | 1.08 | 2.55 | 3.6 | 5.87 | 6.79 | 9.97
318.15 K | 0.838 | 0.905 | 1.09 | 1.25 | 2.97 | 4.2 | 7.12 | 7.51 | 11.7
323.15 K | 0.934 | 1.03 | 1.27 | 1.44 | 3.41 | 4.87 | 8.61 | 8.26 | 13.5

C#CC1(O)CCC2C3CCC4=CC(=O)CCC4C3C(=C)CC21CC (configuration not stated) + CO + O
solubility (g/100 g solution)
Conditions | x2 = 0.05881 | x2 = 0.1233 | x2 = 0.1942 | x2 = 0.2727 | x2 = 0.3599 | x2 = 0.4576 | x2 = 0.5675 | x2 = 0.6923 | x2 = 0.835
273.15 K | 0.987 | 1.09 | 1.19 | 1.31 | 1.32 | 1.44 | 1.45 | 1.62 | 3.44
278.15 K | 1.1 | 1.19 | 1.31 | 1.46 | 1.47 | 1.6 | 1.7 | 1.9 | 3.82
283.15 K | 1.2 | 1.28 | 1.43 | 1.59 | 1.61 | 1.74 | 1.95 | 2.15 | 4.22
288.15 K | 1.31 | 1.39 | 1.56 | 1.75 | 1.77 | 1.88 | 2.21 | 2.46 | 4.66
293.15 K | 1.42 | 1.49 | 1.68 | 1.91 | 1.92 | 2.03 | 2.49 | 2.8 | 5.13
298.15 K | 1.52 | 1.59 | 1.8 | 2.05 | 2.08 | 2.17 | 2.74 | 3.18 | 5.62
303.15 K | 1.62 | 1.68 | 1.91 | 2.21 | 2.23 | 2.3 | 3.01 | 3.61 | 6.16
308.15 K | 1.71 | 1.76 | 2.01 | 2.35 | 2.38 | 2.43 | 3.28 | 4.07 | 6.71
313.15 K | 1.79 | 1.84 | 2.12 | 2.48 | 2.51 | 2.54 | 3.54 | 4.52 | 7.27
318.15 K | 1.86 | 1.92 | 2.21 | 2.62 | 2.66 | 2.64 | 3.78 | 5.05 | 7.92
323.15 K | 1.93 | 1.98 | 2.29 | 2.73 | 2.78 | 2.72 | 4 | 5.59 | 8.54

CC1CCC2C(C)C(OC(=O)CCC(=O)O)OC3OC4(C)CCC1C32OO4 (configuration not stated) + CO + O
solubility (g/100 g solution)
Conditions | 278.15 K | 283.15 K | 288.15 K | 293.15 K | 298.15 K | 303.15 K | 308.15 K | 313.15 K | 318.15 K
x2 = 0.05887 | 0.112 | 0.144 | 0.181 | 0.228 | 0.276 | 0.346 | 0.424 | 0.514 | 0.625
x2 = 0.1235 | 0.366 | 0.464 | 0.566 | 0.693 | 0.82 | 0.997 | 1.19 | 1.41 | 1.67
x2 = 0.1941 | 0.818 | 0.996 | 1.2 | 1.44 | 1.67 | 1.99 | 2.35 | 2.73 | 3.17
x2 = 0.2725 | 1.42 | 1.69 | 2 | 2.36 | 2.71 | 3.17 | 3.68 | 4.22 | 4.83
x2 = 0.36 | 2.09 | 2.46 | 2.87 | 3.34 | 3.8 | 4.37 | 5.01 | 5.65 | 6.39
x2 = 0.4579 | 2.79 | 3.23 | 3.73 | 4.29 | 4.84 | 5.49 | 6.23 | 6.99 | 7.79
x2 = 0.5666 | 3.54 | 4 | 4.58 | 5.22 | 5.83 | 6.54 | 7.36 | 8.18 | 9.06
x2 = 0.6924 | 4.36 | 4.87 | 5.46 | 6.22 | 6.9 | 7.65 | 8.52 | 9.37 | 10.3
x2 = 0.8362 | 5.15 | 5.63 | 6.33 | 7.1 | 7.82 | 8.58 | 9.48 | 10.4 | 11.2

From the CheMixHub drug solubility set
